Measured values: paper PMC6636992 (Science Advances, 2019)
Ends that are not written are not given here. * marks the point of attachment. Isobutyryl(2-OH) = CC(C)(O)C(=O)*

Experiments:
CobB = test: LC-MS detection of deacylation of gpmA peptides by CobB; type: biochemical, P. mirabilis
recombinant ENO = type: biochemical, P. mirabilis; details: NAM 10 mM with CobB and NAD^+, 25°C, 10 hours, Western blotting
P. mirabilis = test: Growth curve of overexpressing P. mirabilis; type: cell-based; details: ENO WT or mutant-overexpressing P. mirabilis, OD600, 37°C
R58M CobB = test: ITC affinity of Khib peptide with R58M CobB; type: binding, P. mirabilis; details: 37°C
WT CobB = test: De-2-hydroxyisobutyrylation kinetics by MALDI-TOF MS, WT CobB; type: biochemical, P. mirabilis
Y55F CobB = test: De-2-hydroxyisobutyrylation kinetics by MALDI-TOF MS, Y55F CobB; type: biochemical, P. mirabilis
R58M mutant CobB = test: LC-MS detection of deacylation of gpmA peptides by R58M mutant CobB; type: biochemical, P. mirabilis; details: 50 μM peptide, 1 μM CobB, 1 mM NAD^+, pH 8.5, 37°C, 2 hours
R58M CobB (P. mirabilis) = test: ITC
Y55F CobB (P. mirabilis) = test: ITC
[1] = target: recombinant CobB (WT) (P. mirabilis); test: ITC
[2] = Km for peptide, MALDI-TOF MS, 1 mM NAD^+, pH 8.5, 37°C, 2 min
[3] = MALDI-TOF MS, 1 mM NAD^+, pH 8.5, 37°C, 2 min, 2-285 μM peptide

For `NC(=O)c1cccnc1` [NAM, nicotinamide], which “inhibitory effect on removal of Khib relative to other acyl groups” value (CobB; NAM 10 mM) is on record?
Its value is “greatest inhibitory effect on Khib”.

And the “inhibitory effect on removal of Ksucc relative to other acyl groups” value (CobB; NAM 10 mM)?
The value was “least effect on Ksucc”.

And the “inhibition of de-2-hydroxyisobutyrylation reaction” value (CobB; NAM 10 mM, 50 μM peptide, 1 μM CobB)?
The value was “inhibited efficiently”.

And the “change of modifications of ENO with NAD^+ and NAM” value (recombinant ENO)?
The value was “no significant change in the modifications of ENO”.

Which growth rate (P. mirabilis) does the source give for ENO-K326Q/K343T here?
The growth rate was “the lowest”.

For “ENO: enolase of P. mirabilis, His-tagged fusion protein”, which growth rate (P. mirabilis) is on record?
Its growth rate is “faster than that of mutated ENO-overexpressing P. mirabilis”.

YGDEQVK(hib)QWR was tested. Which “change of affinity of R58M CobB compared with WT CobB” value (R58M CobB) did it give?
The value was “significantly decreased eight times”.

And the kcat/Km (WT CobB)?
Its kcat/Km is 1.7e+10 M⁻¹ s⁻¹.

And the Km (WT CobB; [2])?
The Km was 13.3 ± 1.6 µM.

And the kcat (WT CobB; [3])?
The kcat was 0.225 ± 0.011 s⁻¹.

What about the kcat/Km (Y55F CobB) of the same molecule?
The kcat/Km was 8.3e+09 M⁻¹ s⁻¹.

What about the Km (Y55F CobB; [2]) of the same molecule?
The Km was 12.2 ± 2 µM.

What about the kcat (Y55F CobB; [3]) of the same molecule?
Its kcat is 0.101 ± 0.006 s⁻¹.

What about the “hydrolysis by CobB in the presence of NAD^+” value (CobB; 50 μM peptide, 1 μM CobB, 1 mM NAD^+, pH 8.5, 37°C, 2 hours) of the same molecule?
Its value is “efficiently catalyzed the hydrolysis”.

What about the “de-2-hydroxyisobutyrylated peptide without NAD^+” value (CobB; 50 μM peptide, 1 μM CobB, without NAD^+) of the same molecule?
Its value is “not detected”.

What about the “deacylated peptide after treatment with R58M mutant” value (R58M mutant CobB) of the same molecule?
The value was “not detectable”.

B1: 2-hydroxyisobutyrylated peptide [YGDEQVK(hib)QWR] (peptide)
peptide: YGDEQVK(Isobutyryl(2-OH))QWR
Which results are given for B1?
Kd (R58M CobB (P. mirabilis)): 15900 nM; Kd (Y55F CobB (P. mirabilis)): 2340 nM; Kd [1]: 2030 nM
